Measured values published in patent publication US20230157996A1, “SMALL-MOLECULE INHIBITOR TARGETING EB VIRUS NUCLEAR ANTIGEN PROTEIN, PREPARATION METHOD AND USE THEREOF” (priority 2020, published 2023).

System: C666-1 cells
Experiment: C666-1 cell viability single concentration (50 μM) inhibition rate (Resazurin)
Assay type: cell-based
Conditions: Homo sapiens, C6661, 72 h, 50 μM compound, 72 hours, C666-1 cells; read-out: C666-1 cell viability single concentration (50 μM) inhibition rate, Ratio* (Inh %)
Protocol: In order to assess the effect of the EBNA1 inhibitor at the cellular level, the cell proliferation inhibition rate was tested, and the inhibition rate of inhibitor at a specific concentration on the proliferation of Epstein-Barr virus positive cell line C666-1 was detected.
In the test, 100 μL C666-1 cells were inoculated in a transparent 96-well plate, and each well contained 5×10^3 cells. After the cells were cultured in an incubator with 5% carbon dioxide at 37° C. for 24 hours, 10 μL compound at a concentration of 500 μmol/L was added into the cells, so that the final concentration of the compound was 50 μmol/L. Two replicate wells were set for each compound, the wells treated with DMSO were set as control wells (Ctrl), and the wells with cell culture medium only were set as blank wells (blank), and they were treated in the incubator with carbon dioxide at 37° C. for 72 hours. The cell viability was assessed using a redox indicator Resazurin. Specifically, 10 μL Resazurin at a concentration of 600 umol/L was added into each well, and incubated at 37° C. for 3 hours, and a Tecan microplate reader was used to detect the fluorescence signal at an excitation wavelength of 560 nm and an emission wavelength of 590 nm. The formula inh %=1−(F−Fblank)/(FCtrl−Fblank)×100% (where, F is the fluorescence intensity of the compound-added wells, FCtrl and Fblank are the readings of the control wells and blank wells, respectively) was used to calculate the inhibition rate of the compound on the proliferation of C666-1 cells, so as to assess the activity of the compound on Epstein-Barr virus positive cells.

Row | Compound | inhibition at 50 µM
1 | O=C(O)c1cccc(N2CC(Oc3ccc(CO)cc3)C2)c1-n1cccc1 [Compound 38, 3-(3-(4-(hydroxymethyl)phenoxy)azetidin-1-yl)-2-(1H-pyrrol-1-yl)benzoic acid] | < 10%
2 | COC(=O)c1cccc(N2CC(Oc3ccc(CO)cc3)C2)c1-c1ccc2cc[nH]c2c1 [Compound 39, Methyl 3-(3-(4-(hydroxymethyl)phenoxy)azetidin-1-yl)-2-(1H-indol-6-yl)benzoate] | 30 to 50%
3 | O=C(O)c1cccc(N2CC(Oc3ccc(CO)cc3)C2)c1-c1ccc2cc[nH]c2c1 [Compound 40, 3-(3-(4-(hydroxymethyl)phenoxy)azetidin-1-yl)-2-(1H-indol-6-yl)benzoic acid] | < 10%
4 | COC(=O)c1cccc(N2CC(Oc3ccc(CO)cc3)C2)c1-c1ccccc1 [Compound 41, Methyl 6-(3-(4-(hydroxymethyl)phenoxy)azetidin-1-yl)-[1,1′-biphenyl]-2-formate] | 10 to 30%
5 | O=C(O)c1cccc(N2CC(Oc3ccc(CO)cc3)C2)c1-c1ccccc1 [Compound 42] | < 10%
6 | COC(=O)c1cccc(N2CC(Oc3ccc(CO)cc3)C2)c1-c1ccc2ccsc2c1 [Compound 43, Methyl 2-(benzo[b]thiophen-6-yl)-3-(3-(4-(hydroxymethyl)phenoxy)azetidin-1-yl)benzoate] | 10 to 30%
7 | O=C(O)c1cccc(N2CC(Oc3ccc(CO)cc3)C2)c1-c1ccc2ccsc2c1 [Compound 44, 2-(benzo[b]thiophen-6-yl)-3-(3-(4-(hydroxymethyl)phenoxy)azetidin-1-yl)benzoic acid] | < 10%
8 | COC(=O)c1cccc(N2CC(Oc3ccc(CO)cc3)C2)c1-c1ccc2nsnc2c1 [Compound 45, Methyl 2-(benzo[c][1,2,5]thiadiazol-5-yl)-3-(3-(4-(hydroxymethyl)phenoxy)azetidin-1-yl)benzoate] | 10 to 30%
9 | O=C(O)c1cccc(N2CC(Oc3ccc(CO)cc3)C2)c1-c1ccc2nsnc2c1 [Compound 46] | < 10%
10 | COC(=O)c1cccc(N2CC(Oc3ccc(CO)cc3)C2)c1-c1ccco1 [Compound 47] | 30 to 50%
11 | COC(=O)c1cccc(N2CC(Oc3ccc(CO)cc3)C2)c1-c1ccoc1 [Compound 48] | > 50%
12 | O=C(O)c1cccc(N2CC(Oc3ccc(CO)cc3)C2)c1-c1ccoc1 [Compound 49] | < 10%
13 | COC(=O)c1cccc(N2CC(Oc3ccc(CO)cc3)C2)c1-c1cccc(F)c1 [Compound 50] | 10 to 30%
14 | O=C(O)c1cccc(N2CC(Oc3ccc(CO)cc3)C2)c1-c1cccc(F)c1 [Compound 51] | < 10%
15 | O=C(O)c1cccc(N2CC(Oc3ccc(CO)cc3)C2)c1-c1ccc2ccoc2c1 [Compound 52] | < 10%
16 | COC(=O)c1cccc(N2CC(Oc3ccc(CO)cc3)C2)c1-c1cccc(Cl)c1 [Compound 53, Methyl 3′-chloro-6-(3-(4-(hydroxymethyl)phenoxy)azetidin-1-yl)-[1,1′-biphenyl]-2-formate] | 10 to 30%
17 | O=C(O)c1cccc(N2CC(Oc3ccc(CO)cc3)C2)c1-c1cccc(Cl)c1 [Compound 54] | 30 to 50%
18 | COC(=O)c1cccc(N2CC(Oc3ccc(CO)cc3)C2)c1-c1cccc(C#N)c1 [Compound 55] | 10 to 30%
19 | O=C(O)c1cccc(-c2c(C(=O)O)cccc2N2CC(Oc3ccc(CO)cc3)C2)c1 [Compound 56] | < 10%
20 | COC(=O)c1cccc(N2CC(Oc3ccc(CO)cc3)C2)c1-c1ccc(Cl)cc1 [Compound 57] | 10 to 30%
21 | O=C(O)c1cccc(N2CC(Oc3ccc(CO)cc3)C2)c1-c1ccc(Cl)cc1 [Compound 58, 4′-chloro-6-(3-(4-(hydroxymethyl)phenoxy)azetidin-1-yl)-[1,1′-biphenyl]-2-formic acid] | < 10%
22 | COC(=O)c1cccc(N2CC(Oc3ccc(CO)cc3)C2)c1-c1cccc(C(F)(F)F)c1 [Compound 59, Methyl 3′-(trifluoromethyl)-6-(3-(4-(hydroxymethyl)phenoxy)azetidin-1-yl)-[1,1′-biphenyl]-2-formate] | 10 to 30%
